{
  "source": "patent US10414778B2",
  "about": "“Methods for treatment of resistant cancer” (New Mexico Tech University Research Park Corporation, priority 2016, dated 2019)",
  "key": {"MES-SA cells": {"tested_on": "MES-SA cells", "assay": "MTT growth inhibition, MES-SA uterine sarcoma", "type": "cell-based", "details": "Homo sapiens; parent MES-SA cells at start of selection of doxorubicin-resistant cells; read-out: GI50 concentration", "experimental": "(§1) Human cancer cell lines were obtained from the American Type Culture Collection (ATCC, Manassas, Va., USA), the European Collection of Cell Culture (ECACC, Salisbury, UK), and the Deutsche Sammlung von Mikroorganismen und Zellkulturen (DSMZ, Braunschweig, Germany). Human cervical adenocarcinoma HeLa cells were cultured in DMEM supplemented with 10% fetal bovine serum (FBS). Human mammary carcinoma MCF-7 cells were cultured in RPMI supplemented with 10% FBS. The U87 cells (ATCC HTB-14) were cultured in DMEM culture medium, while the A549 cells (DSMZ ACC107) were cultured in RPMI culture medium supplemented with 10% heat-inactivated FBS. The GBM Hs683 (ATCC HTB-138) and the T98G (ATCC CRL-1690) cell lines were cultivated in DMEM supplemented with 10% FBS. The GBM U251 cells (ECACC code 09063001) were cultured in 10% MEM. The human uterine sarcoma MES-SA and MES-SA/Dx5 cells were cultured in RPMI-1640 medium supplemented with 10% FBS with MES SA/Dx5 maintained in the presence of 500 nM Doxorubicin (Sigma™). The U373 glioblastoma cells (ECACC 08061901) were cultured in RPMI culture medium supplemented with 10% heat-inactivated FBS.\nAll compounds were dissolved in DMSO at a concentration of either 100 mM or 50 mM prior to cell treatment. The cells were trypsinized and seeded at various cell concentrations depending on the cell type. The cells were grown for 24 h to 72 h, treated with compounds at concentrations ranging from 0.001 to 100 μM, and incubated for 48, 72, or 96 h in 100 or 200 μL media depending on the cell line used. Cells treated with 0.1% DMSO were used as a negative control, and cells treated with 1 μM phenyl arsine oxide (PAO) were used as a positive control. […]\nDrug-resistant cell lines (i.e., glioma: Hs683, U373, U251, U87, T98G; lung cancer: A549, H2073; uterine carcinoma: MES-SA/Dx5) were complemented with drug-sensitive cell lines, H1993 lung cancer and MES-SA uterine cancer, which were used as controls. […] The GI50 values were calculated after 48-96 hours of treatment with the indicated compounds in replicate using the MTT growth assay."}, "Hs683 cells": {"tested_on": "Hs683 cells", "assay": "MTT growth inhibition, Hs683 glioma", "type": "cell-based, human", "experimental": "as §1\n(§2) All compounds were dissolved in DMSO at a concentration of either 100 mM or 50 mM prior to cell treatment. The cells were trypsinized and seeded at various cell concentrations depending on the cell type. The cells were grown for 24 h to 72 h, treated with compounds at concentrations ranging from 0.001 to 100 μM, and incubated for 48, 72, or 96 h in 100 or 200 μL media depending on the cell line used. Cells treated with 0.1% DMSO were used as a negative control, and cells treated with 1 μM phenyl arsine oxide (PAO) were used as a positive control.\n(§3) Compound 4l was evaluated for in vitro growth inhibition against a panel of cancer cell lines, including U373, U251, U87, T98G, human GBM, and A549 NSCLC. […] Compound 4l was also evaluated for in vitro growth inhibition against the apoptosis-sensitive tumor model Hs683 anaplastic oligodendroglioma as a reference.\n(§4) Due to their high potencies, compounds 5l and 5g were used to determine the effects of the compounds on drug-resistant tumor cells. Drug-resistant cell lines (i.e., glioma: Hs683, U373, U251, U87, T98G; lung cancer: A549, H2073; uterine carcinoma: MES-SA/Dx5) were complemented with drug-sensitive cell lines, H1993 lung cancer and MES-SA uterine cancer, which were used as controls. Bulbispermine and paclitaxel were also used as controls. The GI50 values were calculated after 48-96 hours of treatment with the indicated compounds in replicate using the MTT growth assay."}, "U373 glioblastoma cells": {"tested_on": "U373 glioblastoma cells", "assay": "MTT growth inhibition, U373 glioma", "type": "cell-based, human", "experimental": "as §1, §2, §3, §4"}, "U251 cells": {"tested_on": "U251 cells", "assay": "MTT growth inhibition, U251 glioma", "type": "cell-based, human", "experimental": "as §1, §2, §3, §4"}, "U87 cells": {"tested_on": "U87 cells", "assay": "MTT growth inhibition, U87 glioma", "type": "cell-based, human", "experimental": "as §1, §2, §3, §4"}, "T98G cells": {"tested_on": "T98G cells", "assay": "MTT growth inhibition, T98G glioma", "type": "cell-based, human", "experimental": "as §1, §2, §3, §4"}, "GBM 090909 cells": {"tested_on": "GBM 090909 cells", "assay": "MTT growth inhibition, primary GBM-derived neurosphere culture GBM 090909", "type": "cell-based", "details": "Homo sapiens, Table 3, 48-96 h treatment, read-out: GI50 in vitro values, glioma GBM 090909", "experimental": "(§5) Cell culture media were supplemented with 4 mM glutamine (Lonza code BE17-605E), 100 μg/mL gentamicin (Lonza code 17-5182), and penicillin-streptomycin (200 units/ml and 200 μg/ml) (Lonza code 17-602E). Primary GBM-derived neurosphere cultures from a patient undergoing surgical debulking were established using previously described methods. Briefly, resected tumor tissue was minced with a sterile scalpel and dissociated in 3 mL of neurobasal (NB) media containing 100 U/mL of collagenase (Life Technologies™) for 30 minutes at 37° C. Dissociated tissue was then vortexed and filtered using a sterile 70 um nylon Falcon™ cell strainer (Corning™). […]\nas §3"}, "GBM 031810 cells": {"tested_on": "GBM 031810 cells", "assay": "MTT growth inhibition, primary GBM-derived neurosphere culture GBM 031810", "type": "cell-based", "details": "Homo sapiens, Table 3, 48-96 h treatment, read-out: GI50 in vitro values, glioma GBM 031810", "experimental": "as §5, §3"}},
  "note": "Read-outs that look alike come from different tables or passages of the source.",
  "data": [
    {"smiles": "COc1cccc2c1C(=O)c1c(O)c3c(c(O)c1C2=O)C[C@@](O)(C(=O)CO)C[C@@H]3O[C@H]1C[C@H](N)[C@H](O)[C@H](C)O1", "note": "[DOX, doxorubicin, reference compound]", "values": [
      {"measurement": "GI50", "setting": "MES-SA cells", "result": 0.1, "unit": "µM"}
    ]},
    {"smiles": "O[C@H]1C=C[C@@]23c4cc5c(cc4CN(C[C@@H]2O)[C@H]3C1)OCO5", "note": "[bulbispermine, reference compound]", "values": [
      {"measurement": "GI50", "setting": "Hs683 cells; Table 3, 48-96 h treatment, read-out: GI50 in vitro values, glioma Hs683", "result": 27, "unit": "µM"},
      {"measurement": "GI50", "setting": "Hs683 cells; Table 5, 48-96 hours of treatment, read-out: GI50, Glioma Hs683", "result": 27, "unit": "µM"},
      {"measurement": "GI50", "setting": "U373 glioblastoma cells; Table 3, 48-96 h treatment, read-out: GI50 in vitro values, glioma U373", "result": 53, "unit": "µM"},
      {"measurement": "GI50", "setting": "U373 glioblastoma cells; Table 5, 48-96 hours of treatment, read-out: GI50, Glioma U373", "result": 53, "unit": "µM"},
      {"measurement": "GI50", "setting": "U251 cells; Table 3, 48-96 h treatment, read-out: GI50 in vitro values, glioma U251", "result": 41, "unit": "µM"},
      {"measurement": "GI50", "setting": "U251 cells; Table 5, 48-96 hours of treatment, read-out: GI50, Glioma U251", "result": 41, "unit": "µM"},
      {"measurement": "GI50", "setting": "U87 cells; Table 3, 48-96 h treatment, read-out: GI50 in vitro values, glioma U87", "result": 38, "unit": "µM"},
      {"measurement": "GI50", "setting": "U87 cells; Table 5, 48-96 hours of treatment, read-out: GI50, Glioma U87", "result": 38, "unit": "µM"},
      {"measurement": "GI50", "setting": "T98G cells; Table 3, 48-96 h treatment, read-out: GI50 in vitro values, glioma T98G", "result": 99, "unit": "µM"},
      {"measurement": "GI50", "setting": "T98G cells; Table 5, 48-96 hours of treatment, read-out: GI50, Glioma T98G", "result": 99, "unit": "µM"}
    ]},
    {"smiles": "Cn1nnc2c(C(N)=O)ncn2c1=O", "note": "[TMZ, temozolomide, reference compound]", "values": [
      {"measurement": "GI50", "setting": "GBM 090909 cells", "result": 50, "unit": "µM"},
      {"measurement": "GI50", "setting": "GBM 031810 cells", "result": "> 1000", "unit": "µM"}
    ]}
  ]
}
